Results on 16 compounds are retold here after PubChem BioAssay (NCI).

Molecules are shown by their SMILES. “And” between values parts separate entries of the source, which are not always exact repeats. Equal values may be shown once.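 Exposure lasted 48 hours, with cells grown in 96-well plates and compounds tested at five concentrations. GI50 = concentration required for 50% inhibition of growth. The concentration for full growth arrest is given as TGI.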 Where only a bound is given, the exact number is not on record here.

The test system of one experiment is IGROV1 ovarian. The experiment can be described thus: NCI tumour cell line growth inhibition, 48 h.
In the case of `O=c1cc(CNc2cc(F)cc(F)c2)c2ccc(I)cc2[nH]1`, the GI50 is 2.56 µM and the TGI is > 100 µM.
Taken in the same sequence, the figures for `CCCN(Cc1ccc(F)cc1)c1ccc(CO)c(Cl)c1` were 0.0897 µM and 0.39 µM.
On to `CC[C@](C)(O)C(=O)O[C@H]1C(=O)O[C@@H]2C[C@H]3C(C)=CC(=O)[C@@H](O)[C@]3(C)[C@H]3[C@@]4(O)OC[C@]32[C@@H]1[C@@H](C)[C@H]4O`, for which the GI50 was 0.0736 µM; the TGI is 0.544 µM and 0.274 µM.
Take `NC(=O)[C@H]1CCN(c2ncnc(N)c2F)C[C@@H]1N1CCC[C@@H](Nc2cc(Cl)cc(C(F)(F)F)c2)C1=O`: the GI50 is 5.12 µM and the TGI was > 100 µM.
For `CCN(CC)c1ccc(/C=C/c2cc(C)c3ccccc3n2)cc1`, the GI50 is 2.81 µM and the TGI was found to be 25.7 µM.
For `O=C(CCl)c1ccc([N+](=O)[O-])o1`, in that order: 5.5 µM and 14 µM.
For `Nc1ncnc2c1ccn2C1OC2COP(=O)(O)OC2C1O` (configuration not stated), the TGI was > 31 µM.
For `Cc1cc(N2CCCCC2)nc(N(CCNc2ccnc3cc(Cl)ccc23)Cc2ccco2)n1`, the GI50 is 1.28 µM and the TGI was found to be 3.65 µM.
With `O=C(O)[C@@H]1C2CC([C@@H]1C(=O)O)[C@H](N1C(=O)CCC1=O)[C@@H]2Br` (some centres not stated), the TGI was > 100 µM.
`CCCN1C(=O)/C(=c2\sc3n(c2=O)C2C(NN=3)N(CC)C(=O)N2CC)c2ccccc21` (configuration not stated): the GI50 was 0.876 µM and the TGI amounted to 14.1 µM.
As for `c1ccc2[nH]c(-c3ccc(N4CCN(c5ccc(-c6nc7ccccc7[nH]6)cc5)CC4)cc3)nc2c1`, the GI50 was 69.6 µM and the TGI is > 100 µM.
Taken in the same sequence, the figures for `CC1(C)CCC2(C(=O)OC3OC(CO)C(O)C(O)C3O)CC[C@]3(C)C(=CCC4C5(C)CC[C@H](OC6OC(C(=O)O)C(O)C(O)C6O)C(C)(C)C5CCC43C)C2C1` (some centres not stated) were 1.7 µM and > 50 µM.
For `O=S(=O)(c1ccc(NC(=S)NCc2cccnc2)cc1)N1CCCCC1`, in that order: 23.3 µM and > 100 µM.
As for `Fc1ccc2[nH]cc(Cc3c[nH]c4ccc(F)cc34)c2c1`, the GI50 is 16.9 µM and the TGI came to 41.6 µM.
On to `C=C1C(=O)O[C@@H]2C1CC(=O)C(C)CC/C=C(\C)CCC[C@H](C)[C@H]2OC(C)=O` (some centres not stated), for which the GI50 is 10.1 µM and the TGI turned out to be 26.3 µM.
`Cc1ccc(C(=O)Nc2ccc(S(=O)(=O)O)c3cc(S(=O)(=O)O)cc(S(=O)(=O)O)c23)cc1NC(=O)c1cccc(N)c1`: the TGI is > 100 µM.

For a further experiment, the system named is RPMI-8226 leukemia. The experiment can be described thus: NCI tumour cell line growth inhibition, 48 h.
On to `O=c1cc(CNc2cc(F)cc(F)c2)c2ccc(I)cc2[nH]1`, for which the GI50 was 0.759 µM and the TGI is > 100 µM.
With `CCCN(Cc1ccc(F)cc1)c1ccc(CO)c(Cl)c1`, the GI50 is 1.91 µM and the TGI came to 14 µM.
Consider `CC[C@](C)(O)C(=O)O[C@H]1C(=O)O[C@@H]2C[C@H]3C(C)=CC(=O)[C@@H](O)[C@]3(C)[C@H]3[C@@]4(O)OC[C@]32[C@@H]1[C@@H](C)[C@H]4O`, for which the GI50 is 0.0928 µM.
For the compound `NC(=O)[C@H]1CCN(c2ncnc(N)c2F)C[C@@H]1N1CCC[C@@H](Nc2cc(Cl)cc(C(F)(F)F)c2)C1=O`, the GI50 is 16.8 µM and the TGI amounted to 56.3 µM.
For `CCN(CC)c1ccc(/C=C/c2cc(C)c3ccccc3n2)cc1`, in that order: 3.11 µM and 11.3 µM.
As for `O=C(CCl)c1ccc([N+](=O)[O-])o1`, the GI50 is 0.873 µM.
For `Nc1ncnc2c1ccn2C1OC2COP(=O)(O)OC2C1O` (configuration not stated), the TGI is > 100 µM.
With `Cc1cc(N2CCCCC2)nc(N(CCNc2ccnc3cc(Cl)ccc23)Cc2ccco2)n1`, the GI50 was 2 µM and the TGI came to 4.55 µM.
In the case of `O=C(O)[C@@H]1C2CC([C@@H]1C(=O)O)[C@H](N1C(=O)CCC1=O)[C@@H]2Br` (some centres not stated), the TGI was > 100 µM.
In the case of `CCCN1C(=O)/C(=c2\sc3n(c2=O)C2C(NN=3)N(CC)C(=O)N2CC)c2ccccc21` (configuration not stated), the GI50 was 0.427 µM and the TGI came to 6.48 µM.
For `c1ccc2[nH]c(-c3ccc(N4CCN(c5ccc(-c6nc7ccccc7[nH]6)cc5)CC4)cc3)nc2c1`, in that order: 40 µM and > 100 µM.
In the case of `CC1(C)CCC2(C(=O)OC3OC(CO)C(O)C(O)C3O)CC[C@]3(C)C(=CCC4C5(C)CC[C@H](OC6OC(C(=O)O)C(O)C(O)C6O)C(C)(C)C5CCC43C)C2C1` (some centres not stated), the GI50 was 0.776 µM and the TGI was determined as 10.2 µM.
For `O=S(=O)(c1ccc(NC(=S)NCc2cccnc2)cc1)N1CCCCC1`, in that order: 2.17 µM and > 100 µM.
Take `Fc1ccc2[nH]cc(Cc3c[nH]c4ccc(F)cc34)c2c1`: the GI50 is 21 µM and the TGI stood at 62.2 µM.
For `C=C1C(=O)O[C@@H]2C1CC(=O)C(C)CC/C=C(\C)CCC[C@H](C)[C@H]2OC(C)=O` (some centres not stated), in that order: 3.99 µM and 19 µM.

The next experiment relates to NCI/ADR-RES ovarian. The experiment can be described thus: NCI tumour cell line growth inhibition, 48 h.
With `O=c1cc(CNc2cc(F)cc(F)c2)c2ccc(I)cc2[nH]1`, the GI50 was 0.537 µM and the TGI was > 100 µM.
With `CCCN(Cc1ccc(F)cc1)c1ccc(CO)c(Cl)c1`, the GI50 is 9.52 µM and the TGI was 22.9 µM.
`CC[C@](C)(O)C(=O)O[C@H]1C(=O)O[C@@H]2C[C@H]3C(C)=CC(=O)[C@@H](O)[C@]3(C)[C@H]3[C@@]4(O)OC[C@]32[C@@H]1[C@@H](C)[C@H]4O`: the GI50 is 0.036 µM.
Regarding `NC(=O)[C@H]1CCN(c2ncnc(N)c2F)C[C@@H]1N1CCC[C@@H](Nc2cc(Cl)cc(C(F)(F)F)c2)C1=O`, the GI50 was 29.7 µM and the TGI was > 100 µM.
For `CCN(CC)c1ccc(/C=C/c2cc(C)c3ccccc3n2)cc1`, in that order: 1.93 µM and 16.3 µM.
As for `O=C(CCl)c1ccc([N+](=O)[O-])o1`, the GI50 was 3.51 µM and the TGI is 23.8 µM.
Turning to `Nc1ncnc2c1ccn2C1OC2COP(=O)(O)OC2C1O` (configuration not stated), the TGI is > 31.8 µM.
